Test systems include HOP-92 NSCLC; MOLT-4 leukemia; OVCAR-3 ovarian; 786-0 renal; HS 578T breast; OVCAR-8 ovarian; SF-268 CNS; HL-60(TB) leukemia; ACHN renal; SF-295 CNS.
Common to all, as to assay: NCI anticancer screen, dose series, 48 h

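Step 1: Grow cells in 96-well plates. Step 2: Expose to compound for 48 hours at 5 concentrations. Step 3: Interpolate endpoints linearly; if unreached, use highest concentration. At the GI50, growth is halved. TGI denotes the concentration required for complete inhibition of growth.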

Take `CN1CCN(c2ccc(-c3cccc(CN4CCOCC4)c3)cc2NC(=O)c2c[nH]c(=O)cc2C(F)(F)F)CC1`: the GI50 in the assay with HOP-92 NSCLC is 10.7 µM; with MOLT-4 leukemia it was 19 µM; in the assay on OVCAR-3 ovarian it was 31.7 µM; in the assay on 786-0 renal, 41.8 µM; with HS 578T breast, 44.8 µM; in the assay on OVCAR-8 ovarian it was 48.7 µM. The GI50 is 62.5 µM with SF-268 CNS, 36.4 µM with HL-60(TB) leukemia, 40.4 µM in the assay on ACHN renal and 33.1 µM in the assay with SF-295 CNS. Moreover, the TGI in the assay with HOP-92 NSCLC was more than 100 µM; in the assay on MOLT-4 leukemia, 64 µM; in the assay with OVCAR-3 ovarian, more than 100 µM; in the assay with 786-0 renal, more than 100 µM; in the assay with HS 578T breast it was more than 100 µM; in the assay with OVCAR-8 ovarian, more than 100 µM. Also, the TGI with SF-268 CNS, in the assay on HL-60(TB) leukemia, with ACHN renal and in the assay with SF-295 CNS was more than 100 µM throughout.

In the case of `O=S(=O)(NCCNc1cc(-c2cn(-c3ccccc3)nc2-c2cccc(O)c2)ccn1)c1ccc(Br)cc1`, the GI50 in the assay with HOP-92 NSCLC was 2 µM; in the assay with MOLT-4 leukemia, 2.21 µM; in the assay on OVCAR-3 ovarian it was 2.01 µM; with 786-0 renal it was 2.17 µM; in the assay on HS 578T breast it was 2.35 µM; in the assay on OVCAR-8 ovarian, 3.47 µM. The GI50 in the assay with SF-268 CNS was 2.25 µM; in the assay on HL-60(TB) leukemia, 2.19 µM; in the assay with ACHN renal, 3.33 µM; in the assay on SF-295 CNS, 1.88 µM. In addition, the TGI in the assay on HOP-92 NSCLC came to 5.06 µM; with MOLT-4 leukemia, 5.98 µM; with OVCAR-3 ovarian, 4.09 µM; in the assay with 786-0 renal, 7.78 µM; in the assay with HS 578T breast, 7.71 µM; with OVCAR-8 ovarian, 12.6 µM. For the same compound, the TGI in the assay on SF-268 CNS is 7.06 µM; with HL-60(TB) leukemia, 5.76 µM; in the assay on ACHN renal, 15.2 µM; with SF-295 CNS, 3.94 µM.

Take `C[C@@H]1OC(=O)NN=C1c1ccc(-c2ccc(F)cc2)c(C(F)(F)F)c1`: the GI50 was 11 µM in the assay on HOP-92 NSCLC; 5.27 µM in the assay on MOLT-4 leukemia; 6.01 µM in the assay on OVCAR-3 ovarian; 13.7 µM in the assay with 786-0 renal; 12.7 µM in the assay with OVCAR-8 ovarian; 1.03 µM with SF-268 CNS. Moreover, the GI50 in the assay with HL-60(TB) leukemia is 7.93 µM; with ACHN renal, 11.2 µM; in the assay on SF-295 CNS it was 5.49 µM. For the same compound, the TGI in the assay on HOP-92 NSCLC was 25.9 µM; in the assay with MOLT-4 leukemia it was 33.4 µM; with OVCAR-3 ovarian it was 20.3 µM; in the assay with 786-0 renal, 30.3 µM; with HS 578T breast, 3.37 µM; in the assay on OVCAR-8 ovarian it was 31.1 µM. Further, the TGI in the assay on SF-268 CNS was 21.5 µM; in the assay on HL-60(TB) leukemia, more than 100 µM; with ACHN renal it was 23.2 µM; in the assay with SF-295 CNS, 19.2 µM.

For the compound `O=C(Nc1ccc(-n2ccc3c(NC(=O)c4ccccc4)nccc32)cc1)c1ccc(N2CCOCC2)c(C(F)(F)F)c1`, the GI50 in the assay on HOP-92 NSCLC was 1.96 µM; in the assay with MOLT-4 leukemia, 0.0421 µM; in the assay on OVCAR-3 ovarian, 0.254 µM; in the assay with 786-0 renal it was 0.364 µM; in the assay with HS 578T breast it was 1.81 µM; in the assay on OVCAR-8 ovarian, 0.115 µM. The GI50 with SF-268 CNS is 0.122 µM; in the assay with HL-60(TB) leukemia, 1.01 µM; with ACHN renal, 0.106 µM; in the assay on SF-295 CNS, 0.0621 µM. Also, the TGI with HOP-92 NSCLC was 18.1 µM; in the assay on MOLT-4 leukemia it was more than 100 µM; in the assay on OVCAR-3 ovarian, 9.89 µM; in the assay with HS 578T breast, more than 76.5 µM; with OVCAR-8 ovarian it was 56.2 µM; in the assay with SF-268 CNS, more than 77.1 µM. Besides, the TGI in the assay on HL-60(TB) leukemia is more than 100 µM; in the assay with ACHN renal, 22.8 µM; with SF-295 CNS, 1.7 µM.

Regarding `COc1cc(=O)oc(/C=C/C=C/C=C/C(C)=C\C2(C)OC(C)C(C)(O)C2O)c1C` (stereo not drawn), the TGI with HOP-92 NSCLC, with MOLT-4 leukemia, in the assay with OVCAR-3 ovarian, with 786-0 renal, in the assay on HS 578T breast and in the assay on OVCAR-8 ovarian was more than 100 µM in each case. The TGI with SF-268 CNS, in the assay with HL-60(TB) leukemia, with ACHN renal and in the assay on SF-295 CNS was more than 100 µM throughout.

Take `COc1ccc(C(=O)c2cc(C)c(OC)c(C)c2)c(OC)c1N(C(=O)CCl)C(=O)CCl`: the GI50 is 0.195 µM in the assay on HOP-92 NSCLC; 0.172 µM in the assay with MOLT-4 leukemia; 0.0398 µM in the assay on OVCAR-3 ovarian; 0.0474 µM with 786-0 renal; 0.0333 µM with HS 578T breast; 0.062 µM in the assay on OVCAR-8 ovarian. For the same compound, the GI50 with SF-268 CNS is 0.548 µM; in the assay with HL-60(TB) leukemia, 0.0316 µM; in the assay with ACHN renal it was 0.0773 µM; in the assay on SF-295 CNS, 0.0321 µM. Also, the TGI with HOP-92 NSCLC was 30.9 µM; in the assay on MOLT-4 leukemia, 24.2 µM; in the assay with OVCAR-3 ovarian, 1.58 µM; with 786-0 renal, 15.4 µM; in the assay on HS 578T breast, more than 100 µM; in the assay on OVCAR-8 ovarian, more than 92.4 µM. The TGI is 46 µM with SF-268 CNS, 0.106 µM with HL-60(TB) leukemia, 36.7 µM in the assay with ACHN renal and 15.5 µM with SF-295 CNS.

Turning to `CC(C)Cc1ccc(C(C)/C=C2\CCC(CN3CCCCC3)C2=O)cc1` (stereo not drawn), the TGI with HOP-92 NSCLC was found to be 30.4 µM; in the assay on MOLT-4 leukemia, 5.7 µM; with OVCAR-3 ovarian, 11 µM; in the assay with 786-0 renal it was 3.38 µM; with HS 578T breast, 45.6 µM; with OVCAR-8 ovarian, 12.8 µM. Besides, the TGI in the assay with SF-268 CNS was determined as 8.29 µM; in the assay with HL-60(TB) leukemia, 5 µM; with ACHN renal, 19.9 µM; with SF-295 CNS it was 26.5 µM.

Consider `N#CC(C(=O)O)C(c1c(Cl)cccc1Cl)C(C#N)C(=O)O` (stereo not drawn), for which the TGI in the assay on HOP-92 NSCLC, in the assay on MOLT-4 leukemia, in the assay on OVCAR-3 ovarian, in the assay with 786-0 renal, in the assay on HS 578T breast and in the assay with OVCAR-8 ovarian was more than 100 µM each time. Moreover, the TGI in the assay on SF-268 CNS, in the assay on HL-60(TB) leukemia, in the assay with ACHN renal and in the assay on SF-295 CNS was more than 100 µM each time.

As to `CCN(CC)CCC(=O)N1C/C(=C/c2ccccc2)C(=O)/C(=C\c2ccccc2)C1`, the TGI with HOP-92 NSCLC came to 17 µM; in the assay on MOLT-4 leukemia it was 1.33 µM; with OVCAR-3 ovarian, 11 µM; in the assay with 786-0 renal, 9.78 µM; in the assay on HS 578T breast, 2.21 µM; with OVCAR-8 ovarian it was 10.2 µM. The TGI with SF-268 CNS was determined as 5.4 µM; in the assay with HL-60(TB) leukemia, 1.62 µM; with ACHN renal, 7.63 µM; with SF-295 CNS, 5.15 µM.

These data come from PubChem BioAssay (NCI).
